Calls of active or inactive are those of the source. The rule behind the calls is not given here.
Experiments:
C6 [1] = experiment: Induction of senescence in rat C6 cells assessed as upregulation of mortalin expression in nucleus by DAPI staining-based confocal microscopic analysis; format: functional, cell-based
C6 [2] = experiment: Antiproliferative activity against rat C6 cells assessed as appearance of small cell body at 20 uM by alpha-tubulin immunostaining-based phase contrast microscopic analysis; format: functional
C6 [3] = experiment: Antiproliferative activity against rat C6 cells assessed as appearance of small cell body at 10 to 20 uM by DAPI staining-based confocal microscopic analysis; format: functional
C6 [4] = experiment: Induction of senescence in rat C6 cells assessed as upregulation of HSP70 expression at 10 ug/ml by DAPI staining-based confocal microscopic analysis; format: functional, cell-based
C6 [5] = experiment: Antiproliferative activity against rat C6 cells assessed as appearance of differentiated morphology with long stellate process at 20 uM by alpha-tubulin immunostaining-based phase contrast microscopic analysis; format: functional, cell-based
C6 [6] = experiment: Cell cycle arrest in rat C6 cells assessed as decrease in cell number in S phase at 10 uM after 36 hrs by propidium iodide staining-based flow cytometric analysis relative to control; format: functional
C6 [7] = experiment: Antiproliferative activity against rat C6 cells assessed as reduction in cell number at 10 to 20 uM by DAPI staining-based confocal microscopic analysis; format: functional
C6 [8] = experiment: Antiproliferative activity against rat C6 cells assessed as reduction in cell number at 20 uM by alpha-tubulin immunostaining-based phase contrast microscopic analysis; format: functional
C6 [9] = experiment: Induction of senescence in rat C6 cells assessed as translocation of mortalin from perinuclear region to pancytoplasmic region by DAPI staining-based confocal microscopic analysis; format: functional, cell-based
C6 [10] = experiment: Cell cycle arrest in rat C6 cells assessed as decrease in cell number in G2/M phase at 10 uM after 36 hrs by propidium iodide staining-based flow cytometric analysis relative to control; format: functional
C6 [11] = experiment: Antiproliferative activity against rat C6 cells at 10 uM by phase contrast microscopic analysis relative to control; format: functional, cell-based
C6 [12] = experiment: Cell cycle arrest in rat C6 cells assessed as accumulation at G0/G1 phase at 10 uM after 36 hrs by propidium iodide staining-based flow cytometric analysis relative to control; format: functional
C6 [13] = experiment: Cell cycle arrest in rat C6 cells assessed as accumulation at G0/G1 phase at 10 uM after 36 hrs by propidium iodide staining-based flow cytometric analysis; format: functional
C6 [14] = experiment: Antiproliferative activity against rat C6 cells assessed as appearance of differentiated morphology with long stellate process at 10 to 20 uM by DAPI staining-based confocal microscopic analysis; format: functional, cell-based
C6 [15] = experiment: Downregulation of GFAP expression in rat C6 cells by DAPI staining-based confocal microscopic analysis; format: functional, cell-based
C6 [16] = experiment: Antiproliferative activity against rat C6 cells after 72 hrs by MTT assay; format: functional, cell-based; settings: C6, 72 h

Compound	Activity (C6 [1])	Activity (C6 [2])	Activity (C6 [3])	Activity (C6 [4])	Activity (C6 [5])	Activity (C6 [6])	Activity (C6 [7])	Activity (C6 [8])	Activity (C6 [9])	Activity (C6 [10])	Activity (C6 [11])	Activity (C6 [12])	Activity (C6 [13])	Activity (C6 [14])	Activity (C6 [15])	IC50 (C6 [16]) [µM]
COC(=O)CNC(=O)[C@H](Cc1ccc(O)cc1)NC(=O)c1cccc2c(=O)c3ccccc3[nH]c12	Active	Active	Active	Active	Active	Active	Active	Active	Active	Active	Active	Active	Active	Active	Active	14
O=C(N[C@@H](Cc1ccc(O)cc1)C(=O)O)c1cccc2c(=O)c3ccccc3[nH]c12													Active			14
O=C(O)CNC(=O)[C@@H]1CCCN1C(=O)[C@H](Cc1ccc(O)cc1)NC(=O)c1cccc2c(=O)c3ccccc3[nH]c12	Active	Active	Active	Active	Active	Active	Active	Active	Active	Active	Active	Active	Active	Active	Active	14
O=C(N[C@@H](Cc1ccc(O)cc1)C(=O)NCC(=O)N1CCC[C@H]1C(=O)O)c1cccc2c(=O)c3ccccc3[nH]c12	Active	Active	Active	Active	Active	Active	Active	Active	Active	Active	Active	Active	Active	Active	Active	14
COC(=O)[C@@H](NC(=O)c1cccc2c(=O)c3ccccc3[nH]c12)C(C)C													Active			14
COC(=O)[C@H](Cc1ccc(O)cc1)NC(=O)c1cccc2c(=O)c3ccccc3[nH]c12													Active			14

Reference: ChEMBL document CHEMBL3612052, “Identification of amino acid appended acridines as potential leads to anti-cancer drugs” (Bioorg Med Chem Lett, 2015)
